Laboratory results: PMC7351026, “Serum Half-Lives for Short- and Long-Chain Perfluoroalkyl Acids after Ceasing Exposure from Drinking Water Contaminated by Firefighting Foam” (Environmental Health Perspectives, 2020)

Experiments:
[1] = Individual serum elimination rate and half-life (linear regression per employee); details: individual estimate; for half-life: human, serum, oral, HL (half-life);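 on HL (half-life): half-life in years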
Method: Serum PFAS concentrations were log-transformed. Time was calculated as the elapsed days between supply of clean bottled water and […] blood sampling. We assumed one compartment, first-order elimination kinetics. In this kinetic model, the body is considered as one homogeneous volume in which mixing is instantaneous and from which PFAS could be absorbed, transferred, and eliminated according to the rate of elimination that is proportional to the concentration of PFAS in the body. Two methods were used to estimate serum elimination rate constant (k) and half-life for each PFAS:
Method 2: For estimation of individual k, linear regression was used to derive the slope ( β ) of the logarithm of serum concentrations vs. time for each employee. The negative value of the slope ( −β ) for each individual was equivalent to the individual k, and individual serum elimination half-life was calculated as ln2/k for each PFAS. If β was positive (i.e., PFAS concentrations tended to increase over the five samplings), the half-life was not calculated.

[2] = PFAS levels in serum samples of airport employees (LC/MS/MS); details: for Serum level in the first samples, median (range) / Relative composition of PFAS in serum, molar concentration basis / Relative composition of PFAS in serum, weight basis / Serum concentration, molar basis / Serum concentration, weight basis: all 26 airport employees; for Relative composition of PFAS in serum, molar concentration basis / Relative composition of PFAS in serum, weight basis: first serum samples; for Serum concentration, molar basis / Serum concentration, weight basis: median of first serum samples
In short: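 Serum from airport employees, drawn after contaminated drinking-water exposure ended, up to five monthly rounds, all reanalyzed in one batch. 25 μL serum precipitated with acetonitrile/methanol plus labeled internal standards; LC/MS/MS on BEH C18 with ammonium acetate/methanol gradient, calibrants prepared in FBS.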

[3] = 1st sampling (September 2018), count 17
[4] = 2nd sampling (October 2018), count 17
[5] = 3rd sampling (November, 2018), count 17
[6] = 4th sampling (December 2018), count 16
[7] = 5th sampling (January 2019), count 16
[8] = employees participated in first blood sampling and repeated blood and urine sampling, N=17
[9] = employees participated in first blood sampling only, N=9, 11-14 d after end of exposure

Compound: O=C(O)C(F)(F)C(F)(F)C(F)(F)C(F)(F)C(F)(F)C(F)(F)F [PFHpA, perfluoroheptanoic acid]
- half-life ([1]; subject 1, 5 samples): 110 days
- half-life ([1]; subject 2, 5 samples): 73 days
- half-life ([1]; subject 3, 5 samples): 146 days
- half-life ([1]; subject 4, 5 samples): 73 days
- half-life ([1]; subject 5, 5 samples): 183 days
- half-life ([1]; subject 6, 4 samples): 73 days
- half-life ([1]; subject 7, 5 samples): 36.5 days
- half-life ([1]; subject 8, 5 samples): 36.5 days
- half-life ([1]; subject 9, 5 samples): 36.5 days
- half-life ([1]; subject 10, 5 samples): 110 days
- half-life ([1]; subject 11, 5 samples): 110 days
- half-life ([1]; subject 12, 5 samples): 36.5 days
- half-life ([1]; subject 13, 5 samples): 36.5 days
- half-life ([1]; subject 14, 4 samples): 36.5 days
- half-life ([1]; subject 15, 5 samples): 73 days
- half-life ([1]; subject 16, 5 samples): 256 days
- half-life ([1]; subject 17, 5 samples): 36.5 days
- Elimination rate ([1]; subject 1, 5 samples): 2.1 yearly
- Elimination rate ([1]; subject 2, 5 samples): 3.7 yearly
- Elimination rate ([1]; subject 3, 5 samples): 1.7 yearly
- Elimination rate ([1]; subject 4, 5 samples): 3.2 yearly
- Elimination rate ([1]; subject 5, 5 samples): 1.3 yearly
- Elimination rate ([1]; subject 6, 4 samples): 4.1 yearly
- Elimination rate ([1]; subject 7, 5 samples): 4.6 yearly
- Elimination rate ([1]; subject 8, 5 samples): 5.4 yearly
- Elimination rate ([1]; subject 9, 5 samples): 7.8 yearly
- Elimination rate ([1]; subject 10, 5 samples): 2.2 yearly
- Elimination rate ([1]; subject 11, 5 samples): 2.6 yearly
- Elimination rate ([1]; subject 12, 5 samples): 6.7 yearly
- Elimination rate ([1]; subject 13, 5 samples): 5.4 yearly
- Elimination rate ([1]; subject 14, 4 samples): 6.6 yearly
- Elimination rate ([1]; subject 15, 5 samples): 3.9 yearly
- Elimination rate ([1]; subject 16, 5 samples): 0.9 yearly
- Elimination rate ([1]; subject 17, 5 samples): 5.2 yearly
- Serum PFAS level, 25 percentile [2, 3]: 0.45
- Serum PFAS level, 75 percentile [2, 3]: 1.1
- Serum PFAS level, Max [2, 3]: 2.2
- Serum PFAS level, Median [2, 3]: 0.53
- Serum PFAS level, Min [2, 3]: 0.20
- Serum PFAS level, 25 percentile [2, 4]: 0.18
- Serum PFAS level, 75 percentile [2, 4]: 0.83
- Serum PFAS level, Max [2, 4]: 2.0
- Serum PFAS level, Median [2, 4]: 0.33
- Serum PFAS level, Min [2, 4]: 0.07
- Serum PFAS level, 25 percentile [2, 5]: 0.09
- Serum PFAS level, 75 percentile [2, 5]: 0.75
- Serum PFAS level, Max [2, 5]: 2.0
- Serum PFAS level, Median [2, 5]: 0.27
- Serum PFAS level, Min [2, 5]: 0.08
- Serum PFAS level, 25 percentile [2, 6]: 0.09
- Serum PFAS level, 75 percentile [2, 6]: 0.72
- Serum PFAS level, Max [2, 6]: 1.8
- Serum PFAS level, Median [2, 6]: 0.15
- Serum PFAS level, Min [2, 6]: 0.05
- Serum PFAS level, 25 percentile [2, 7]: < LOD
- Serum PFAS level, 75 percentile [2, 7]: 0.50
- Serum PFAS level, Max [2, 7]: 1.4
- Serum PFAS level, Median [2, 7]: 0.10
- Serum PFAS level, Min [2, 7]: < LOD
- Serum level in the first samples, median (range) [2]: 0.46 (0.07–2.2) ng/mL
- PFAS in first serum sample, median (range) [2, 8]: 0.53 (0.20–2.2) ng/mL
- PFAS in first serum sample, median (range) [2, 9]: 0.17 (0.07–1.3) ng/mL
- Initial serum PFAS level, max ([2]; females (N=7)): 2.2 ng/mL
- Initial serum PFAS level, median ([2]; females (N=7)): 0.46 ng/mL
- Initial serum PFAS level, min ([2]; females (N=7)): 0.08 ng/mL
- Relative composition of PFAS in serum, molar concentration basis [2]: 0.5%
- Relative composition of PFAS in serum, weight basis [2]: 0.4%
- Initial serum PFAS level, Max ([2]; males (N=19)): 2.0 ng/mL
- Initial serum PFAS level, Min ([2]; males (N=19)): 0.07 ng/mL
- Initial serum PFAS level, median ([2]; males (N=19)): 0.45 ng/mL
- Serum concentration, molar basis [2]: 0.0013
- Serum concentration, weight basis [2]: 0.46

Compound: O=S(=O)(O)C(F)(F)C(F)(F)C(F)(F)C(F)(F)C(F)(F)C(F)(F)C(F)(F)F [PFHpS, perfluoroheptane sulfonic acid]
- Elimination rate ([1]; subject 1, 5 samples): 0.5 yearly
- HL (half-life) ([1]; subject 1, 5 samples): 1.3 year
- Elimination rate ([1]; subject 2, 5 samples): 0.2 yearly
- HL (half-life) ([1]; subject 2, 5 samples): 3.4 year
- Elimination rate ([1]; subject 3, 5 samples): 0.2 yearly
- HL (half-life) ([1]; subject 3, 5 samples): 3.0 year
- Elimination rate ([1]; subject 4, 5 samples): 0.001 yearly
- Elimination rate ([1]; subject 5, 5 samples): −0.3 yearly
- Elimination rate ([1]; subject 6, 4 samples): 0.1 yearly
- HL (half-life) ([1]; subject 6, 4 samples): 6.1 year
- Elimination rate ([1]; subject 7, 5 samples): −0.04 yearly
- Elimination rate ([1]; subject 8, 5 samples): −0.6 yearly
- Elimination rate ([1]; subject 9, 5 samples): 0.05 yearly
- HL (half-life) ([1]; subject 9, 5 samples): 15 year
- Elimination rate ([1]; subject 10, 5 samples): 0.4 yearly
- HL (half-life) ([1]; subject 10, 5 samples): 1.8 year
- Elimination rate ([1]; subject 11, 5 samples): 1.7 yearly
- HL (half-life) ([1]; subject 11, 5 samples): 0.4 year
- Elimination rate ([1]; subject 12, 5 samples): 0.6 yearly
- HL (half-life) ([1]; subject 12, 5 samples): 1.1 year
- Elimination rate ([1]; subject 13, 5 samples): −0.2 yearly
- Elimination rate ([1]; subject 14, 4 samples): 1.0 yearly
- HL (half-life) ([1]; subject 14, 4 samples): 0.7 year
- Elimination rate ([1]; subject 15, 5 samples): 1.6 yearly
- HL (half-life) ([1]; subject 15, 5 samples): 0.4 year
- Elimination rate ([1]; subject 16, 5 samples): 0.1 yearly
- HL (half-life) ([1]; subject 16, 5 samples): 12 year
- Elimination rate ([1]; subject 17, 5 samples): 1.7 yearly
- HL (half-life) ([1]; subject 17, 5 samples): 0.4 year
- Serum PFAS level, 25 percentile [2, 3]: 0.96
- Serum PFAS level, 75 percentile [2, 3]: 2.5
- Serum PFAS level, Max [2, 3]: 6.2
- Serum PFAS level, Median [2, 3]: 1.6
- Serum PFAS level, Min [2, 3]: 0.49
- Serum PFAS level, 25 percentile [2, 4]: 0.95
- Serum PFAS level, 75 percentile [2, 4]: 2.1
- Serum PFAS level, Max [2, 4]: 6.1
- Serum PFAS level, Median [2, 4]: 1.5
- Serum PFAS level, Min [2, 4]: 0.45
- Serum PFAS level, 25 percentile [2, 5]: 0.94
- Serum PFAS level, 75 percentile [2, 5]: 1.9
- Serum PFAS level, Max [2, 5]: 6.3
- Serum PFAS level, Median [2, 5]: 1.4
- Serum PFAS level, Min [2, 5]: 0.47
- Serum PFAS level, 25 percentile [2, 6]: 0.93
- Serum PFAS level, 75 percentile [2, 6]: 2.1
- Serum PFAS level, Max [2, 6]: 5.9
- Serum PFAS level, Median [2, 6]: 1.5
- Serum PFAS level, Min [2, 6]: 0.35
- Serum PFAS level, 25 percentile [2, 7]: 1.1
- Serum PFAS level, 75 percentile [2, 7]: 2.2
- Serum PFAS level, Max [2, 7]: 6.2
- Serum PFAS level, Median [2, 7]: 1.5
- Serum PFAS level, Min [2, 7]: 0.45
- Serum level in the first samples, median (range) [2]: 1.3 (0.28–6.2) ng/mL
- PFAS in first serum sample, median (range) [2, 8]: 1.6 (0.49–6.2) ng/mL
- PFAS in first serum sample, median (range) [2, 9]: 0.97 (0.28–1.9) ng/mL
- Initial serum PFAS level, max ([2]; females (N=7)): 2.2 ng/mL
- Initial serum PFAS level, median ([2]; females (N=7)): 1.1 ng/mL
- Initial serum PFAS level, min ([2]; females (N=7)): 0.49 ng/mL
- Relative composition of PFAS in serum, molar concentration basis [2]: 1.1%
- Relative composition of PFAS in serum, weight basis [2]: 1.2%
- Initial serum PFAS level, Max ([2]; males (N=19)): 6.2 ng/mL
- Initial serum PFAS level, Min ([2]; males (N=19)): 0.28 ng/mL
- Initial serum PFAS level, median ([2]; males (N=19)): 1.4 ng/mL
- Serum concentration, molar basis [2]: 0.0029
- Serum concentration, weight basis [2]: 1.3
